Experiments:
[1] = molecular target: T1, Aldehyde Dehydrogenase (Yeast ALDH) (Saccharomyces cerevisiae, UniProt P46367); assay: ALDH assay by spectroscopic method (screening for ALDH activity); format: biochemical; details: substrate reagent 50 μM in 0.1M TrisHCl pH 8.0, change in absorbance or fluorescence as a function of time
T1 sequence (P46367 25-519): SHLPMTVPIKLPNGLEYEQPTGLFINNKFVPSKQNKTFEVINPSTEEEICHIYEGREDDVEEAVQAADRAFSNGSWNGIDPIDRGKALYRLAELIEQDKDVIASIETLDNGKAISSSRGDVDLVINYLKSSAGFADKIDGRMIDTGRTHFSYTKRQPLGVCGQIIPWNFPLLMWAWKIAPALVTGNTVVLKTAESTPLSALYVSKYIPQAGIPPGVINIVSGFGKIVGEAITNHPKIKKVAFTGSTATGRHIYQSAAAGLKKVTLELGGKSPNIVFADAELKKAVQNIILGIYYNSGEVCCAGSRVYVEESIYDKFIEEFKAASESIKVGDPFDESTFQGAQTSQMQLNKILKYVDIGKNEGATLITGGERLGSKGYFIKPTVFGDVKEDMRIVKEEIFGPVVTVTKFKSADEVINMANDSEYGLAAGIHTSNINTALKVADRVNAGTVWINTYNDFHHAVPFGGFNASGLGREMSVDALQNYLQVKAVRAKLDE
Source text: Aldehyde Dehydrogenase is an enzyme that acts on aldehydes as substrates and converts them to acid (products).
Designing and Standardization of ALDH Assay: • following the conversion of NAD+ to NADH typically one does the ALDH assays.
[drawing 72] • The formation of NADH is monitored by measuring the absorbance at 340 nm. However, before employing this method, the compounds were screened for their spectral properties, especially to avoid any interference in absorbance either from the substrate or the product.
Such compounds were further screened for their fluorescence properties by recording their excitation/emission wavelengths.
ALDH Assay by Spectroscopic Method: • The ALDH assay is designed to measure either the utilization of the substrate or formation of product by measuring at their unique wavelengths (Absorbance or Fluorescence).
All the spectral studies for the compounds were carried out in 0.1M Tris HCl pH 8.0 buffer. CSCT Compounds were initially dissolved in Methanol (˜2.0 mg/mL). The compounds were further diluted in 0.1M Tris HCl pH 8.0 buffer (concentration ranging from ˜20 to 50 μg/mL). The Spectra was recorded using Spectramax M5.
The ALDH activity can be followed either by monitoring the conversion of β-NAD^+ to β-NADH or by directly monitoring the product/substrate. The conversion of β-NAD^+ to β-NADH yields increasing in absorbance at 340 nm. If either the substrate/products have any spectral interference at this wavelength then unique absorbance/fluorescence wavelength of either product/substrate are used. The measurements were taken on Spectromax M5.
• 1. Reagent 1: 1 M Tris HCl Buffer, pH 8.0 at 25° C. (Prepare 50 ml in deionized water using Trizma Base, Sigma Prod. No. T-1503. Adjust to pH 8.0 at 25° C. with 1 M HCl.) • 2. Reagent 2: 20 mM β-Nicotinamide Adenine Dinucleotide, Oxidized Form, Solution (β-NAD^+) (Prepare 1 ml in deionized water using β-Nicotinamide Adenine Dinucleotide, PREPARE FRESH). • 3. Reagent 3: 3 M Potassium Chloride Solution (KCl) (Prepare 1 ml in deionized water using Potassium Chloride). • 4. Reagent 4: 1 M 2-Mercaptoethanol Solution (2-ME) (Prepare 1 ml in deionized water using 2-Mercaptoethanol. PREPARE FRESH.) • 5. Reagent 5: 100 mM Tris HCl Buffer with 0.02% (w/v) Bovine Serum Albumin, pH 8.0 at 25° C. (for Enzyme Dilution). • 6. Reagent 6: Aldehyde Dehydrogenase Enzyme Solution (Yeast ALDH). Immediately before use, prepare a solution containing 0.5-1 unit/ml of Aldehyde Dehydrogenase in cold Reagent 5).
Pipette (in milliliters) the following reagents into vial:
In a 3.00 ml reaction mix, the final concentrations are 103 mM Tris HCl Buffer (Reagent 1), 0.67 mM β-nicotinamide adenine dinucleotide (Reagent 2), 100 mM potassium chloride (Reagent 3), 10 mM 2-mercaptoethanol (Reagent 4), 0.0007% (w/v) bovine serum albumin (Reagent 5) and 0.05-0.1 unit aldehyde dehydrogenase (Reagent 6).

ALDH = assay: Cell based ALDH assay: competition against ALDEFLUOR in SK-BR-3 cells, FACS
Description: Briefly, the compound was dissolved in DMSO and competed against ALDEFLUOR™, a BODIPY-conjugated ALDH substrate, in a cell-based assay using SK-BR-3 cells. The BODIPY fluorescence in the cell samples were measured using FACS at 488 nm. The median fluorescence of each sample was measured and fitted to a sigmoidal dose-response curve for calculation of IC50 using Prism Graphpad.
6-(2-fluoroethyloxy)-2-naphthaldehyde was dissolved and diluted in DMSO prior to use.
SK-BR-3 cells, a cell line reported to have a high expression of ALDH+ cells, was used for all experiments. The cells were cultured in RPMI media supplemented with 10% fetal bovine serum and 2 mM L-glutamine, in 37° C., 5% CO2. On the day of assay, cells were harvested by trypsination, centrifuged, and re-suspended in ALDEFLUOR™ assay buffer to a concentration of 1×10^6 cells.
The compound was competed against ALDEFLUOR™, a BODIPY-conjugated ALDH substrate. […] Following incubation at 37° C., the fluorescence was measured in each sample by FACS at 488 nm. […]
The median fluorescence of each sample was calculated, and the values were then normalized and fitted to a dose-response curve for calculation of IC50 using Prism Graphpad.

| SMILES | Comments (ALDH assay screening result) [1] | IC50 (ALDH; competition against ALDEFLUOR, BODIPY fluorescence by FACS at 488 nm, compound 0.005-50 μM) [nM] | Displacement of ALDEFLUOR (decrease in fluorescence with increasing compound concentration) (ALDH; FACS at 488 nm) |
| --- | --- | --- | --- |
| O=Cc1ccc2ccccc2c1 [2-Naphthaldehyde] | Active |  |  |
| COc1cccc(C=O)c1 [3-anisladehyde] | Active |  |  |
| O=Cc1ccc(I)cc1 [4-Iodobenzaldehyde] | Active |  |  |
| O=Cc1ccc(F)cc1 [4-fluorobenzaldehyde] | Active |  |  |
| O=CCCNC(=O)c1ccc(F)cc1 [Example 2, (2-formylethyl)-4-fluorobenzamide] | Not active |  |  |

Further lines, with some results ahead:

| Comments (ALDH assay screening result) [1] | IC50 (ALDH; competition against ALDEFLUOR, BODIPY fluorescence by FACS at 488 nm, compound 0.005-50 μM) [nM] | SMILES | Displacement of ALDEFLUOR (decrease in fluorescence with increasing compound concentration) (ALDH; FACS at 488 nm) |
| --- | --- | --- | --- |
| Active |  | COc1ccc2cc(C=O)ccc2c1 [6-Methoxy-2-Naphthaldehyde] |  |
| Active |  | O=Cc1ccc2cc(OCCCF)ccc2c1 [Example 3, 6-(3-fluororpropyloxy)-2-naphthaldehyde] |  |
| Active | 330 | O=Cc1ccc2cc(OCCF)ccc2c1 [Example 3A, 6-(2-fluoroethyloxy)-2-naphthaldehyde] | displaced ALDEFLUOR™ |
